In patent US20210330611A1, “THERAPY FOR NEUROLOGICAL DISEASES/DISORDERS” (priority 2020, published 2021):
Structures can show the parent of a compound that is named as a salt. Where two headings read alike, the source gives them in different places. *1 amine or outer side, *2 acyl side, *3 side chain or, on linkers, in order; H or OH if unused. Where a SMILES comes first, the peptide text is derived from it. Bridges are numbered along the chain shown (N, C = ends). Roman numbers before positions name the chains, in order. [ ]: non-standard residue; d: D form. Actinocin(9to1) = Cc1c2oc3c(C)ccc(C(=O)[*:1])c3nc-2c(C(=O)[*:2])c(N)c1=O; NMeV = CN[C@H](C(=O)O)C(C)C; Sar = CNCC(=O)O

What was measured:
Assay type in all cases: cell-based, rat
[1] = test system: fibrin-induced microglia activation; experiment: Image-based assay of fibrin-induced microglia activation (HTS and dose response); details: for inhibition at 10 µM / IC50: Rattus norvegicus, Microglia; for inhibition at 10 µM: read-out: Fibrin % inhibition
[2] = test system: LPS-induced microglia activation; experiment: Image-based assay of LPS-induced microglia activation (HTS and dose response); details: for inhibition at 10 µM / IC50: Rattus norvegicus, Microglia; for inhibition at 10 µM: read-out: LPS % inhibition
[3] = test system: fibrin- and LPS-induced microglia activation; experiment: cells; details: for inhibition at 10 µM: Rattus norvegicus, Microglia
[4] = primary HTS, 10 μM, fibrin-stimulated primary microglia
[5] = primary HTS, 10 μM, LPS-stimulated primary microglia
[6] = primary microglia HTS, fibrin stimulation, compounds at 10 μM
[7] = primary microglia HTS, LPS stimulation, compounds at 10 μM
[8] = classification by fibrin and LPS inhibition, HTS at 10 μM
[9] = primary microglia HTS, fibrin stimulation, increased cell size (>800 μm^2) as marker of activation
[10] = 48 h, primary microglia HTS, LPS stimulation, increased cell size (>800 μm^2) as marker of activation
[11] = quadrant by fibrin and LPS inhibition in HTS of 1907 compounds
[12] = primary microglia HTS, fibrin stimulation, activation = cell size >800 μm2
[13] = primary microglia HTS, LPS stimulation, activation = cell size >800 μm2
[14] = 48 h, primary microglia HTS, LPS stimulation, activation = cell size >800 μm2

CCC[C@@H]1C[C@@H](C(=O)N[C@@H]([C@H]2O[C@H](SC)[C@H](O)[C@@H](O)[C@H]2O)[C@H](C)Cl)N(C)C1 [Clindamycin Hydrochloride]
inhibition at 10 µM [1]: -44% | inhibition at 10 µM [2]: 7% | Quadrant (FIG. 5b) [3]: Q4

CCCCCCCCCCCCCCCC(=O)O[C@@H]1[C@@H](O)[C@@H](O)[C@@H]([C@H](NC(=O)[C@@H]2C[C@@H](CCC)CN2C)[C@H](C)Cl)O[C@@H]1SC.Cl [Clindamycin Palmitate Hydrochloride]
Fibrin % inhibition [1, 4]: −23% | LPS % inhibition [2, 5]: 11% | Quadrant (FIG. 5b) ([3]; primary HTS, 10 μM): Q4

C[C@]12CCC(=O)C=C1CC[C@@H]1[C@@H]2C(=O)C[C@@]2(C)[C@H]1CC[C@]2(O)C(=O)CO [Cortisone]
Fibrin % inhibition [1, 4]: 37% | LPS % inhibition [2, 5]: 44% | Quadrant (FIG. 5b) ([3]; primary HTS, 10 μM): Q4

CCOP(=S)(OCC)Oc1ccc2c(C)c(Cl)c(=O)oc2c1 [Coumophos]
Fibrin % inhibition [1, 6]: −12% | LPS % inhibition [2, 7]: 16% | Quadrant (FIG. 5b) [3, 8]: Q4

OC[C@H]1O[C@H](O[C@H]2[C@H](O)[C@@H](O)C(O)O[C@@H]2CO)[C@H](O)[C@@H](O)[C@@H]1O (stereo partly drawn) [D-(+)-maltose]
Fibrin % inhibition [1, 6]: −7% | LPS % inhibition [2, 7]: 14% | Quadrant (FIG. 5b) [3, 8]: Q4

C=C(C)[C@H]1CC=C(C)CC1 [D-limonene]
Fibrin % inhibition [1, 6]: −19% | LPS % inhibition [2, 7]: 11% | Quadrant (FIG. 5b) [3, 8]: Q4

Cc1c2oc3c(C)ccc(C(=O)N[C@@H]4C(=O)N[C@H](C(C)C)C(=O)N5CCC[C@H]5C(=O)N(C)CC(=O)N(C)[C@@H](C(C)C)C(=O)O[C@@H]4C)c3nc-2c(C(=O)N[C@@H]2C(=O)N[C@H](C(C)C)C(=O)N3CCC[C@H]3C(=O)N(C)CC(=O)N(C)[C@@H](C(C)C)C(=O)O[C@@H]2C)c(N)c1=O [Dactinomycin] (I: T[dV]P[Sar][NMeV] / II: T[dV]P[Sar][NMeV]; ester I:1-I:C, II:1-II:C; linker I:N-II:N via Actinocin(9to1))
inhibition at 10 µM [1, 9]: 106% | inhibition at 10 µM [2, 10]: 106% | Quadrant (FIG. 5b) [3, 11]: Q2

Cc1nc(Nc2ncc(C(=O)Nc3c(C)cccc3Cl)s2)cc(N2CCN(CCO)CC2)n1 [Dasatinib]
inhibition at 10 µM [1, 9]: 109% | inhibition at 10 µM [2, 10]: 70% | Quadrant (FIG. 5b) [3, 11]: Q2

CN1C(=O)CN=C(c2ccccc2)c2cc(Cl)ccc21 [Diazepam]
inhibition at 10 µM [1]: -19% | inhibition at 10 µM [2]: 5% | Quadrant (FIG. 5b) [3]: Q4

O=C(O)Cc1ccccc1Nc1c(Cl)cccc1Cl [Diclofenac]
inhibition at 10 µM [1, 6]: -27% | inhibition at 10 µM [2, 7]: 12% | Quadrant (FIG. 5b) [3, 8]: Q4

CN(C)CCOC(c1ccccc1)c1ccccc1 [Diphenhydramine]
inhibition at 10 µM [1]: -47% | inhibition at 10 µM [2]: 15% | Quadrant (FIG. 5b) [3]: Q4

COc1cc2c(cc1OC)C(=O)C(CC1CCN(Cc3ccccc3)CC1)C2 (stereo not drawn) [Donepezil]
inhibition at 10 µM [1]: 5% | inhibition at 10 µM [2]: 17% | Quadrant (FIG. 5b) [3]: Q4

COc1cccc2c1C(=O)c1c(O)c3c(c(O)c1C2=O)C[C@@](O)(C(=O)CO)C[C@@H]3O[C@H]1C[C@H](N)[C@H](O)[C@H](C)O1 [Doxorubicin]
inhibition at 10 µM [1, 9]: 106% | inhibition at 10 µM [2, 10]: 108% | Quadrant (FIG. 5b) [3, 11]: Q2

O=C(CCCN1CC=C(n2c(=O)[nH]c3ccccc32)CC1)c1ccc(F)cc1 [Droperidol]
inhibition at 10 µM [1]: -3% | inhibition at 10 µM [2]: 20% | Quadrant (FIG. 5b) [3]: Q4

CN[C@@H](C)[C@H](O)c1ccccc1.Cl [Ephedrine (1r,2s) Hydrochloride]
Fibrin % inhibition [1, 6]: −26% | LPS % inhibition [2, 7]: 10% | Quadrant (FIG. 5b) [3, 8]: Q4

C[C@]12CC[C@@H]3c4ccc(O)cc4CC[C@H]3[C@@H]1C[C@H](O)[C@@H]2O [Epiestriol]
inhibition at 10 µM [1]: -25% | inhibition at 10 µM [2]: 6% | Quadrant (FIG. 5b) [3]: Q4

C[C@]12CC[C@@H]3c4ccc(O)cc4CC[C@H]3[C@@H]1C[C@@H](O)[C@@H]2O [Estriol]
inhibition at 10 µM [1]: -17% | LPS % inhibition ([2]; 10 µM): 16% | inhibition at 10 µM [2]: 8% | Quadrant (FIG. 5b) [3]: Q4

CCN1C(=O)NC(c2ccccc2)C1=O (stereo not drawn) [Ethotoin]
inhibition at 10 µM [1, 6]: -36% | inhibition at 10 µM [2, 7]: 12% | Quadrant (FIG. 5b) [3, 8]: Q4

NC(N)=Nc1nc(CSCCC(N)=NS(N)(=O)=O)cs1 [Famotidine]
inhibition at 10 µM [1]: -82% | inhibition at 10 µM [2]: 9% | Quadrant (FIG. 5b) [3]: Q4

Nc1ccc(C(=O)Oc2ccccc2)c(O)c1 [Fenamisal, Phenyl Aminosalicylate]
Fibrin % inhibition [1, 6]: −8% | LPS % inhibition [2, 7]: 16% | Quadrant (FIG. 5b) [3, 8]: Q4

CC(C)(C(=O)O)c1ccc(C(O)CCCN2CCC(C(O)(c3ccccc3)c3ccccc3)CC2)cc1 (stereo not drawn) [Fexofenadine]
inhibition at 10 µM [1]: 13% | inhibition at 10 µM ([2]; 48 h): 14% | Quadrant (FIG. 5b) [3]: Q4

C[C@@H]1C[C@H]2[C@@H]3C[C@H](F)C4=CC(=O)C=C[C@]4(C)[C@@]3(F)[C@@H](O)C[C@]2(C)[C@@]1(O)C(=O)CO [Flumethasone, reference compound]
IC50 ([1]; 48 h, read-out: Fibrin IC50): < 0.001 µM | inhibition at 10 µM [1]: 109% | IC50 ([1]; read-out: Fibrin IC50 (uM)): < 0.001 µM | IC50 ([1]; read-out: Fibrin IC50 (uM) (Suppl. Table 7)): < 0.001 µM | inhibition at 10 µM ([2]; 48 h): 101% | IC50 ([2]; 48 h, read-out: LPS IC50): < 0.001 µM | IC50 ([2]; read-out: LPS IC50 (uM)): < 0.001 µM | IC50 ([2]; read-out: LPS IC50 (uM) (Suppl. Table 7)): < 0.001 µM | Quadrant (FIG. 5b) [3]: Q2 | inhibition at 10 µM ([3]; read-out: Cherry-picked Hit (Suppl. Table 7)): > 50% | inhibition at 10 µM ([3]; read-out: Hit): > 50%

CC(=O)OCC(=O)[C@@]12OC(C)(C)O[C@@H]1C[C@H]1[C@@H]3C[C@H](F)C4=CC(=O)C=C[C@]4(C)[C@@]3(F)[C@@H](O)C[C@@]12C [Fluocinonide, reference compound]
inhibition at 10 µM [1]: 112% | IC50 ([1]; read-out: fib_IC50 (uM)): 0.002 µM | inhibition at 10 µM ([2]; 48 h): 106% | IC50 ([2]; read-out: LPS_IC50 (uM)): 0.002 µM | Activity [3]: fib/LPS | Quadrant (FIG. 5b) [3]: Q2

CNCCC(Oc1ccc(C(F)(F)F)cc1)c1ccccc1.Cl (stereo not drawn) [Fluoxetine Hydrochloride, Fluoxetine]
Fibrin % inhibition [1]: 46% | LPS % inhibition [2]: 65% | Quadrant (FIG. 5b) [3]: Q1

CC(C)n1c(/C=C/C(O)CC(O)CC(=O)O)c(-c2ccc(F)cc2)c2ccccc21 (stereo not drawn) [Fluvastatin]
inhibition at 10 µM [1, 9]: 110% | inhibition at 10 µM [2, 10]: 101% | Quadrant (FIG. 5b) [3, 11]: Q2

O=C1OCCN1/N=C/c1ccc([N+](=O)[O-])o1 [Furazolidone]
inhibition at 10 µM [1]: 3% | inhibition at 10 µM ([2]; 48 h): 8% | Quadrant (FIG. 5b) [3]: Q4

NS(=O)(=O)c1cc(C(=O)O)c(NCc2ccco2)cc1Cl [Furosemide]
inhibition at 10 µM [1]: -5% | inhibition at 10 µM ([2]; 48 h): 25% | Quadrant (FIG. 5b) [3]: Q4

Cc1cnc(C(=O)NCCc2ccc(S(=O)(=O)NC(=O)NC3CCCCC3)cc2)cn1 [Glipizide]
inhibition at 10 µM [1]: 12% | inhibition at 10 µM ([2]; 48 h): 18% | Quadrant (FIG. 5b) [3]: Q4

C[N+]1(C)CCC(OC(=O)C(O)(c2ccccc2)C2CCCC2)C1 (stereo not drawn) [Glycopyrrolate]
inhibition at 10 µM [1]: -33% | inhibition at 10 µM ([2]; 48 h): 3% | Quadrant (FIG. 5b) [3]: Q4

N=C(N)NCCN1CCCCCCC1 [Guanethidine]
inhibition at 10 µM [1]: -44% | inhibition at 10 µM ([2]; 48 h): 12% | Quadrant (FIG. 5b) [3]: Q4

COc1ccc2c(c1OC)C(=O)O[C@@H]2[C@H]1c2cc3c(cc2CCN1C)OCO3 [Hydrastine (1r,9s)]
Fibrin % inhibition [1, 12]: −27% | LPS % inhibition [2, 13]: 10% | Quadrant (FIG. 5b) [3, 11]: Q4

CC(C)[N+]1(C)[C@@H]2CC[C@H]1CC(OC(=O)C(CO)c1ccccc1)C2.[Br-] (stereo partly drawn) [Ipratropium Bromide]
Fibrin % inhibition [1]: 6% | LPS % inhibition [2]: 8% | Quadrant (FIG. 5b) [3]: Q4

O.OC[C@H]1O[C@@H](O[C@H]2[C@H](O)[C@@H](O)C(O)O[C@@H]2CO)[C@H](O)[C@@H](O)[C@H]1O (stereo partly drawn) [Lactose Monohydrate]
inhibition at 10 µM [1, 12]: -22% | inhibition at 10 µM [2, 14]: 9% | Quadrant (FIG. 5b) [3, 11]: Q4

O=C(O)COCCN1CCN([C@H](c2ccccc2)c2ccc(Cl)cc2)CC1 [Levocetirizine Dihydrochloride]
inhibition at 10 µM [1]: -44% | inhibition at 10 µM ([2]; 48 h): -2% | Quadrant (FIG. 5b) [3]: Q4

C#C[C@]1(O)CC[C@H]2[C@@H]3CCC4=CC(=O)CC[C@@H]4[C@H]3CC[C@@]21CC [Levonorgestrel]
inhibition at 10 µM [1, 12]: 16% | inhibition at 10 µM [2, 14]: -13% | Quadrant (FIG. 5b) [3, 11]: Q4

CCN(CC)CC(=O)Nc1c(C)cccc1C [Lidocaine]
inhibition at 10 µM [1]: -23% | inhibition at 10 µM ([2]; 48 h): 8% | Quadrant (FIG. 5b) [3]: Q4

O=C(O)CCCCC1CCSS1 (stereo not drawn) [Lipoic Acid]
Fibrin % inhibition [1, 12]: −38% | LPS % inhibition [2, 13]: 39% | Quadrant (FIG. 5b) [3, 11]: Q4

NCCCC[C@H](N[C@@H](CCc1ccccc1)C(=O)O)C(=O)N1CCC[C@H]1C(=O)O [Lisinopril]
inhibition at 10 µM [1]: 1% | inhibition at 10 µM ([2]; 48 h): 3% | Quadrant (FIG. 5b) [3]: Q4

CCn1cc(C(=O)O)c(=O)c2cc(F)c(N3CCNC(C)C3)c(F)c21 (stereo not drawn) [Lomefloxacin]
inhibition at 10 µM [1]: 7% | inhibition at 10 µM ([2]; 48 h): 15% | Quadrant (FIG. 5b) [3]: Q4
